Test results as given in patent publication US10739333B2, “Methods of BH3 profiling” (Dana-Farber Cancer Institute, Inc., priority 2013, dated 2020).

Tests used:
SuDHL4 cell line = assay: miBH3 profile of the SuDHL4 cell line (FIG. 4); type: cell-based; details: FIG. 4A, matches other BH3 profiling methods in FIG. 4B
Procedure: BH3 profiling can be accomplished at the single cell level by immobilizing cells on a solid surface. Optionally the solid surface is polyamine or poly-lysine coated. Immobilized cells are permeabilized as described above. The cells are then contacted with BH3 peptides and/or test agents. After the cells have been treated for a predetermined period of time such as 45-90 minutes, the cells are fixed and further permeabilized by methods known in the art. For example the cells are fixed with formaldehyde and further permeabilized with methanol or Triton X-100 (t-Octylphenoxypolyethoxyethanol). Outer membrane permeabilization is determined by intracellular staining for molecules from the mitochondrial inter-membrane space and a mitochondrial marker. Examples of molecules that can be measured include cytochrome c, SMAC/Diablo, Omi, adenylate kinase-2 or apoptosis inducing factor (AIF). A mitochondrial marker includes MnSOD. Stained cells can be counterstained with nuclear stains such as DAPI. Optionally other intracellular and extracellular markers can be measured. […]
MicroBH3 (miBH3) is a BH3 profiling method where the measurement of the mitochondrial effect of […] peptides have on individual cells by microscopy. […] Fixed cells by this method can be readily stopped at the fixation step and can be analyzed weeks after acquisition as well as readily re-analyzed if needed.

MDA-MB-231 = assay: BH3 profiling in pre-made frozen versus freshly prepared plates (FIG. 5); type: cell-based; details: responsive cells MDA-MB-231
From the text: Also included in the invention are kits for performing BH3 Profiling using whole cells. The kit consists of a multi-well plate containing staining components in a mitochondrial buffer and a tube of mitochondrial buffer for the suspension and dispensing of cells into the plate for analysis. Each well of the multi-well plate contains a mixture of JC-1 dye, oligomycin, 2-mercaptoethanol, digitonin, and a peptide or small molecule at twice their final concentration, Optionally the plate and suspension buffer tube can be frozen for later use along with the suspension buffer tube. To use, the plate and buffer tube are thawed and brought to room temperature. Cells are suspended in buffer, dispensed into the wells of the plate, and analyzed in a fluorescence plate reader using the JC-1 red fluorescence at 590 nm with excitation at 545 nm.

BAD: BH3 domain peptide LWAAQRYGRELRRMSDEFEGSFKGL, SEQ ID NO 4
release of cytochrome c / loss of correlation between cytochrome c and MnSOD channels (SuDHL4 cell line): Release of cytochrome c and loss of correlation
response to peptide treatment in frozen and freshly prepared plates (MDA-MB-231): comparable response
